Measured values published in patent US8318724B2, “Small molecule inhibitors of MRP1 and other multidrug transporters” (The Cleveland Clinic Foundation, priority 2004, dated 2012).

Columns and labels:
[1] = system: MCF7/VP cells; assay: Sensitization of MRP1-expressing MCF7/VP cells to chemotherapeutic drugs (methylene blue assay); format: cell-based; details: for folds of sensitization of MCF7/VP cells to cisplatin: cisplatin is not an MRP1 substrate; for folds of sensitization of MCF7/VP cells to doxorubicin / folds of sensitization of MCF7/VP cells to etoposide / folds of sensitization of MCF7/VP cells to vincristine: ratio of LD50 in the presence and in the absence of the compound
Description: Cells in 96-well plates (5×10^3 per well) were incubated with different concentrations of vincristine in the presence of 5 μM of the candidate compounds for 3 days. Cell numbers then were estimated using methylene blue assay. […] Verapamil (10 μM) was used as control.
FIG. 6 illustrates the effect of the identified inhibitor compounds on cell sensitivity to doxorubicin and vincristine. Cells (with or without MRP1 expression) were incubated 24 hours with the indicated concentrations of vincristine or doxorubicin followed by incubation for additional 48 hours in drugfree media. Cell numbers were quantified by standard methylene blue assay.
(§1) Fold of sensitization is calculated as a ratio of LD50 in the presence and in the absence of the inhibitor compound (see FIG. 6).
FIG. 8 illustrates the effects of the identified inhibitor compounds on sensitivity of MRP1-positive and MRP1-negative cells to vincristine. Fold of sensitization again is calculated as the ratio of LD50 in the presence and in the absence of the inhibitor compound (see FIG. 6).
FIG. 9 illustrates the effects of the identified inhibitor compounds on sensitivity of MRP1-positive and MRP1-negative cells to etoposide. Fold of sensitization again is calculated as the ratio of LD50 in the presence and in the absence of the inhibitor compound (see FIG. 6).
FIG. 10 illustrates the effects of the identified inhibitor compounds on sensitivity of MRP1-positive and MRP1-negative cells to taxol and cisplatin. Fold of sensitization again is calculated as the ratio of LD50 in the presence and in the absence of the inhibitor compound (see FIG. 6).

[2] = biological target: T1, MRP1 (Homo sapiens, UniProt P33527); assay: Sensitization to doxorubicin of cells expressing multidrug transporter MRP1; format: cell-based; details: ratio of LD50
T1 construct: MCF7/VP breast cancer cells (24), which have amplified and overexpressed MRP1, but negligible Pgp expression; endogenous in cells; host or cells: MCF7/VP (MCF7/VP clone 14) breast cancer cells
Description: as §1
(§2) Fold of sensitization again is calculated as the ratio of LD50 in the presence and in the absence of the inhibitor compound (see FIG. 6).

[3] = biological target: MRP2 (Homo sapiens, UniProt Q92887); assay: Sensitization to doxorubicin of cells expressing multidrug transporter MRP2; format: cell-based; details: ratio of LD50
Description: as §1, §2

[4] = biological target: MDR1 (Homo sapiens, UniProt P08183)
Description: as §1, §2

[5] = system: MDR3; assay: Sensitization to doxorubicin of cells expressing multidrug transporter MDR3; format: cell-based; details: ratio of LD50
Description: as §1, §2

[6] = biological target: T1, MRP1; assay: Daunorubicin retention / efflux assay (FIG. 12); format: cell-based; details: daunorubicin 2 hours with compound, then 1 hour drug-free medium; retained daunorubicin
Description: FIG. 12 classifies the identified inhibitor compounds according to their strength as inhibitors of […] by MRP1. Cells were treated with daunorubicin in the presence of a test compound or a control for 2 hours, followed by incubation in fresh drug-free medium for 1 hour. Retained daunorubicin levels were measured to determine the effect of the inhibitor compounds on efflux activities.

[7] = biological target: T1, MRP1; assay: Dose dependence of drug sensitization effect, 4H10 vs MK571 (FIG. 14); format: cell-based; details: three different lots of 4H10
[8] = system: NB cells; assay: Direct toxicity toward NB cell lines (FIG. 18); format: cell-based; details: different lots of compound
[9] = In vivo toxicity, mouse weight after single i.p. injection (FIG. 19); details: up to 100 mg/kg
Source text: In particular, one parameter for testing toxicity is a weight loss of greater the […] of the body weight of a test mouse.

[10] = system: NB; assay: In vivo efficacy in mouse model of NB in combination with chemotherapeutic agents (FIG. 20)
Source text: The test was a clinically relevant mouse model of NB that closely reflects the human disease (n=10, unless otherwise noted).

[11] = system: GL15 and 8 MG cell lines; details: both glioma cell lines; cited from earlier work

MDR1, sequence (P08183 whole entry): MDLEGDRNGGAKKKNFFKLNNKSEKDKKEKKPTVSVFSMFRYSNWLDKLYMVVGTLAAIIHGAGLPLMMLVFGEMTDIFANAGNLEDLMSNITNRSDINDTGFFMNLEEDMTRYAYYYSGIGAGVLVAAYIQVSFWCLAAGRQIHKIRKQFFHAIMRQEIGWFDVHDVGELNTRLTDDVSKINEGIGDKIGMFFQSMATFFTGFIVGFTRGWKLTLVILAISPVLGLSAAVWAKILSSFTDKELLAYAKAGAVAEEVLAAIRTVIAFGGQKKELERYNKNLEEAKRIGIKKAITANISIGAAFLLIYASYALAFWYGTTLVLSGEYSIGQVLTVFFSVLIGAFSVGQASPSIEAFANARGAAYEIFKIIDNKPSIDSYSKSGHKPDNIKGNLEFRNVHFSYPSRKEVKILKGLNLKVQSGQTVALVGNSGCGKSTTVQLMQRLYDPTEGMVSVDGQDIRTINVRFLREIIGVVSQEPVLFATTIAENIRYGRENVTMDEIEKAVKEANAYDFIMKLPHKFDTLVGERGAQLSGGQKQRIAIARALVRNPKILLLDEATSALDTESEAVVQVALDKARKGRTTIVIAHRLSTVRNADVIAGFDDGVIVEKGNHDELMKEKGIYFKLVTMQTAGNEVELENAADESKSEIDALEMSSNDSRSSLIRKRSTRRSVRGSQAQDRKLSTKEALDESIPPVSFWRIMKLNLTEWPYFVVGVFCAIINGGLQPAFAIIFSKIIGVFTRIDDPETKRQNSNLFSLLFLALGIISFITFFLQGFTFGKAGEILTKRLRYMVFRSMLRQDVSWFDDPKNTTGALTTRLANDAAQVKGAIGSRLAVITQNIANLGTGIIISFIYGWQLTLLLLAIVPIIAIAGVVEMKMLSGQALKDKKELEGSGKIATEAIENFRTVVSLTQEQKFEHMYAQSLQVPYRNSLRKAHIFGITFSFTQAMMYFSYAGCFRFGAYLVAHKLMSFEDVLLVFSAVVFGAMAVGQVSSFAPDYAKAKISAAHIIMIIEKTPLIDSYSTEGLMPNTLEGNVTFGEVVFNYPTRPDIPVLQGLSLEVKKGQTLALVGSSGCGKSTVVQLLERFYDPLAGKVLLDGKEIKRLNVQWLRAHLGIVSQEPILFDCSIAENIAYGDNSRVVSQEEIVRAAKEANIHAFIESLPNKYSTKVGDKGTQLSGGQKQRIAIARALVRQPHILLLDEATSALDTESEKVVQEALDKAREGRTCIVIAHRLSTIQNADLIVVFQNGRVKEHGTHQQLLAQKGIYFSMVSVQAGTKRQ
T1 sequence (P33527 whole entry): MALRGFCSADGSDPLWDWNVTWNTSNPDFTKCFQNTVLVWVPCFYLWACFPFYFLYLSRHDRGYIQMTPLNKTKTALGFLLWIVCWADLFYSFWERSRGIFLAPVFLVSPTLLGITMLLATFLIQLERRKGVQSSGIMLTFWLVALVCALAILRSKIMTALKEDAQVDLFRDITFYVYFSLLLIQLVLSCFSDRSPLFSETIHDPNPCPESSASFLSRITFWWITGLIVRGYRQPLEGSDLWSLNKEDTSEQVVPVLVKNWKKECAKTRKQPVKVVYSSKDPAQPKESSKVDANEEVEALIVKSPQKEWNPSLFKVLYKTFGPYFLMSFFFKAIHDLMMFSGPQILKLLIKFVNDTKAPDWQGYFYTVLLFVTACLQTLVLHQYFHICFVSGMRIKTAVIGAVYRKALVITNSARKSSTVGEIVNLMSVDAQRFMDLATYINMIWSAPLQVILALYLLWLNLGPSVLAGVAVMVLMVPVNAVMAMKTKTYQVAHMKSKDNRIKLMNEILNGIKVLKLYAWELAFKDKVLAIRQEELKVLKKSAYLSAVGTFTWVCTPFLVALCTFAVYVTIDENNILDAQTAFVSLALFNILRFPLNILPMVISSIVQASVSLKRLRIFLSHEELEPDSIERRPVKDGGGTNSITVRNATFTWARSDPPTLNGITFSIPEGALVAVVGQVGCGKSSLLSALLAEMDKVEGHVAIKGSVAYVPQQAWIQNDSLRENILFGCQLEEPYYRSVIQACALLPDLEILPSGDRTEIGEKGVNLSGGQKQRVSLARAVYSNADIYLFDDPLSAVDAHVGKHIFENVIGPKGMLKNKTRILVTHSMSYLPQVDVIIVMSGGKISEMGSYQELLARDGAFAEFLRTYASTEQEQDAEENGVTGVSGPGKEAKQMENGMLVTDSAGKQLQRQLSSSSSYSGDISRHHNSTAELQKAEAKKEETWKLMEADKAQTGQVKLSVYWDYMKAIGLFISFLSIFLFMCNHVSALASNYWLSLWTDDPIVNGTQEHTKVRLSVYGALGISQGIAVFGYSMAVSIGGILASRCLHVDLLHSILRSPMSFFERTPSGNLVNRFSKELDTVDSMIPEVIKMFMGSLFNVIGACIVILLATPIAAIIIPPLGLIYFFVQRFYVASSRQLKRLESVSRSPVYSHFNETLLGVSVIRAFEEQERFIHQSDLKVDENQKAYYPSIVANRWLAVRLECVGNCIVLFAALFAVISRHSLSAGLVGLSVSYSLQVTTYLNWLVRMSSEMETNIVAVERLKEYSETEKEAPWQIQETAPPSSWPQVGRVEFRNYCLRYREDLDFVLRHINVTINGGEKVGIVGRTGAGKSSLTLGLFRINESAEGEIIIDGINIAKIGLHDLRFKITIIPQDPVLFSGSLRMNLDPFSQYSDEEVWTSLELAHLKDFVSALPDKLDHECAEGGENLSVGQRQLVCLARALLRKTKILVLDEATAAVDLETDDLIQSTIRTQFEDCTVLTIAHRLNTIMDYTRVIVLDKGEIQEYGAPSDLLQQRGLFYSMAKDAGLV
MRP2, sequence (Q92887 whole entry, species assumed): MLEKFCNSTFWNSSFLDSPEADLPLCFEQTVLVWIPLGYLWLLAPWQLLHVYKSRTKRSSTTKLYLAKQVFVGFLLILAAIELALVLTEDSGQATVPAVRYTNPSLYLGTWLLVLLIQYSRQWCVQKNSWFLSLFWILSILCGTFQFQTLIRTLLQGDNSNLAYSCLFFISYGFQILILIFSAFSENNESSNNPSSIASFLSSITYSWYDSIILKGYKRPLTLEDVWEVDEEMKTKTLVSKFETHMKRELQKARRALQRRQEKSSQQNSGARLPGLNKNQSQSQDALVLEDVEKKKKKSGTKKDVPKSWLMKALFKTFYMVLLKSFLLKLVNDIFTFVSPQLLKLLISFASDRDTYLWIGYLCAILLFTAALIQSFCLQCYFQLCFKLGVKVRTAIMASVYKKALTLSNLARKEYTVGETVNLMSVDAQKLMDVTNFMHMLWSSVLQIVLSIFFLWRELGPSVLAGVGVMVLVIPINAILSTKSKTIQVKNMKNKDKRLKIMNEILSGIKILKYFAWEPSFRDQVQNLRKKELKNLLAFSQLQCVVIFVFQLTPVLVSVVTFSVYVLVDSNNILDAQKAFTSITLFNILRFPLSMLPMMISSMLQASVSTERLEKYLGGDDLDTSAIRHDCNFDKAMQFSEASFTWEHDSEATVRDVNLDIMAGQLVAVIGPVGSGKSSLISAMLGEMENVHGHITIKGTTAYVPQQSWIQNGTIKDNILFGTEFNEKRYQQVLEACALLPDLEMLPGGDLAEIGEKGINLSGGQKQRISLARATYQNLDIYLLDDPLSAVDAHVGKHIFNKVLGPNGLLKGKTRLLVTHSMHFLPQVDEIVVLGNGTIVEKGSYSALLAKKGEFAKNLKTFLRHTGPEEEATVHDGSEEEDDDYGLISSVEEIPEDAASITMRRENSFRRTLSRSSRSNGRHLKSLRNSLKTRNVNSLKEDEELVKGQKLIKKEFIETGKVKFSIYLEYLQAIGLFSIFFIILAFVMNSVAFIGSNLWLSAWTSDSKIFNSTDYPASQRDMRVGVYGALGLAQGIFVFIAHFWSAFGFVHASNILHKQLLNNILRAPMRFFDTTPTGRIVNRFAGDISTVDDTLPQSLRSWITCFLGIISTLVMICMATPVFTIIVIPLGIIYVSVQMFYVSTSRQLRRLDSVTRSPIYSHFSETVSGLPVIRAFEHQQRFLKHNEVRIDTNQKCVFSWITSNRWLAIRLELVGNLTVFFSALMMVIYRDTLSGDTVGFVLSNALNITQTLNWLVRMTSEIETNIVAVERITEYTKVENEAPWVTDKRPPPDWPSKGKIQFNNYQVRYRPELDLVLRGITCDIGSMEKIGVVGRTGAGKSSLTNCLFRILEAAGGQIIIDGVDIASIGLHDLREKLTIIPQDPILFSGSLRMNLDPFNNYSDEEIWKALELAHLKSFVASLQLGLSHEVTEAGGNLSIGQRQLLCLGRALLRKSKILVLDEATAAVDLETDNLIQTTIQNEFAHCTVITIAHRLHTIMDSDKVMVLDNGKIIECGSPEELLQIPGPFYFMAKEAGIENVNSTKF

SMILES | folds of sensitization of MCF7/VP cells to cisplatin [1] [folds] | folds of sensitization of MCF7/VP cells to doxorubicin [1] [folds] | folds of sensitization of MCF7/VP cells to etoposide [1] [folds] | folds of sensitization of MCF7/VP cells to vincristine [1] [folds] | folds of sensitization of doxorubicin, cells expressing MRP1 [2] [folds] | folds of sensitization of doxorubicin, cells expressing MRP2 [3] [folds] | folds of sensitization of doxorubicin, cells expressing MDR1 [4] [folds] | folds of sensitization of doxorubicin, cells expressing MDR3 [5] [folds] | strength as inhibitor of daunorubicin efflux by MRP1 [6] | concentrations showing drug sensitization effect [7] | direct toxicity against NB cells [8] | effect on mouse weight ([9]; 30 days) | in vivo toxicity ([9]; 30 days of observation) | effectiveness compared with BSO [10] | accumulation of vincristine and etoposide [11]
CCN(CC)CCCNC(=O)c1cnn2c(C(F)(F)F)cc(-c3ccc(C)cc3)nc12 [Compound 4E10] | 1.25 | 3.2 | 27 | 12 | 3.7 | 7 | 2.0 | 0.6 |  |  |  |  |  |  | 
O=C(NCCN1CCOCC1)c1cnn2c(-c3ccccc3)cc(-c3ccccc3)nc12 [Compound 4E11] | 1.1 | 2.7 | 34 | 10.5 | 3.9 | 6.5 | 4.2 | 0.7 |  |  |  |  |  |  | 
CC(Sc1nnc(-c2ccco2)n1-c1ccccc1)C(=O)NC(c1ccccc1)c1ccccc1 (stereo not shown) [Compound 4G05] | 1.1 | 1.6 | 2 | 3 | 1.75 | 1.5 | 4.6 | 2.4 |  |  |  |  |  |  | 
O=C(NCCCN1CCOCC1)c1cnn2c(-c3ccccc3)cc(-c3ccccc3)nc12 [Compound 4H10] | 1.2 | 3.8 | 58 | 14.2 | 4.1 | 3.3 | 4.5 | 0.9 | most potent inhibitor | submicromolar | no direct toxicity | did not adversely affect mouse weight | lack of in vivo toxicity | much more effective than BSO | 
C=CCSc1nnc2n(-c3ccccc3)c(=O)c3c4c(sc3n12)CCC4 [Compound 9C06] | 1.5 | 3.3 | 12 | 16 | 3.3 | 4.3 | 3.7 | 0.4 |  |  |  |  |  |  | 
c1ccc(-c2cn3c4ccccc4nc3n2CCN2CCCCC2)cc1 [Compound 14C08] | 1.05 | 4.0 | 18 | 14 | 3.0 | 1.3 | 3.7 | 0.6 |  |  |  |  |  |  | 
Cc1nnc(SCC(=O)N/N=C/c2cccc3cccnc23)n1-c1ccccc1 [Compound 17A08] | 1.1 | 3.6 | 5 | 3 | 1.1 | 1.4 | 2 | 1.3 |  |  |  |  |  |  | 
COc1ccc2c(c1)c(CC(=O)O)c(C)n2C(=O)c1ccc(Cl)cc1 [Indomethacin] |  |  |  |  |  |  |  |  |  |  |  |  |  |  | increased the accumulation
CCCN(CCC)S(=O)(=O)c1ccc(C(=O)O)cc1 [probenecid] |  |  |  |  |  |  |  |  |  |  |  |  |  |  | increased the accumulation
